The text below walks through data of PMC5672024, “Selective Glucocorticoid Receptor Properties of GSK866 Analogs with Cysteine Reactive Warheads” (Frontiers in Immunology, 2017).

Assay [1] relates to GR. Set-up: method as in PMID 27612544. Conditions: ref [14], cited from earlier work; for % inhibition of GR ligand binding: 1.5 nM [3H]-dexamethasone, 1 µM ligand.
In assay [2] the test system is GR Ser211 phosphorylation. The experiment in a line: Western blot of GR Ser211 phosphorylation. Conditions: for concentration dependence of GR Ser211 phosphorylation: HaCat cells, 6 h, 10, 100 or 1,000 nM. In kind it is cell-based. As for the experimental part:
Whole cell extracts contain multiple protease inhibitors (Complete Mini®, Roche) and Halt phosphatase inhibitor cocktail (Thermoscientific). Soluble protein extracts were obtained after three times freeze and thaw cycles and centrifugation at […] for 15 min at 4°C. Samples were separated by sodium dodecyl sulfate-polyacrylamidegel electrophoresis (SDS-PAGE) and transferred onto nitrocellulose membranes (Hybond C, Amersham) following standard protocols. After blocking, membranes were incubated overnight at 4°C with the primary antibodies: anti-GR (sc-8992, SantaCruz Biotechnology), anti-phospho-GR Ser211 (4161, Cell Signalling) and anti-Actin (A3853, Sigma-Aldrich) followed by dye-conjugated secondary antibodies (LI-COR® Biosciences). Bound complexes were detected with the Odyssey® infrared imaging system (LI-COR®) and quantified by Image J software.
Figure 5 Selective glucocorticoid receptor agonist GSK866 and its analogs UAMC-1217, UAMC-1218 trigger glucocorticoid receptor (GR) Ser211 phosphorylation. (A) Western detection of expression levels of Actin, GR, and GR Ser S211 phosphorylation in HaCat cells following 6 h treatment with 1 µM Dex, UAMC-1217, UAMC-1218, or GSK866. (B) Bar plot representation of Western blot intensities of Actin, GR, and GR Ser S211 phosphorylation observed in panel A, as quantified by Image J. (C) Western detection of expression levels of Actin, GR expression, and Ser S211 phosphorylation in HaCat cells following 6 h treatment with, respectively, 10, 100, or 1,000 nM Dex or UAMC-1217. (D) Bar plot representation of Western blot intensities of Actin, GR, and GR Ser S211 phosphorylation observed in panel (C), as quantified by free Image J software.
Background: In western blotting, separated proteins are transferred to a membrane and probed.

Assay [3] relates to IL6 mRNA. The experiment in a line: qPCR of TNF-inducible IL6 in HaCat cells. In kind it is cell-based. Conditions: 6 h, 10, 100 or 1,000 nM, TNF 2,500 IU/ml last 4 h. The procedure: qPCR was performed using the GoTaq qPCR Master Mix (Promega) according to manufacturer’s instructions. In short, a 25 µl reaction volume mix per sample was prepared containing 12.5 µl GoTaq qPCR Master Mix, 0.4 µM forward and reverse primer, and nuclease-free water. We used the Rotor-Gene Q qPCR machine of Qiagen with following PCR program: 95°C for 2 min, 40 cycli denaturation (95°C, 15 s) and annealing/extension (60°C, 30 s), and dissociation (60–95°C). […] Each sample was run in triplicate. The median value of the triplicates were taken to calculate the deltaCt-values using GAPDH as the normalization gene.
(A) QPCR assays was performed against the GR target gene GILZ/TSC22D3 in HaCat cells treated for 6 h with different concentrations 10, 100 or 1,000 nM Dex or UAMC-1217. Bar graph plot represents the relative mRNA levels of GILZ/TSC22D3 upon Dex or UAMC-1217 treatment. (B) QPCR assays was performed against the TNF-inducible inflammatory gene interleukin-6 (IL6) in HaCat cells treated for 6 h with different concentrations 10, 100, or 1,000 nM Dex or UAMC-1217 either or not, cotreated for the last 4 h with TNF (2,500 IU/ml) as indicated in panel (B). […] Significant mean differences versus control setups panel (A) or TNF treated setup panel (B) are marked as *** (P < 0.001), **(P < 0.01), * (P < 0.05) and were determined by one-way ANOVA (Dunnetts Posttest).
A general note: Real-time PCR tracks product formation cycle by cycle.

Assay [4] relates to GR nuclear translocation in A549 cells. Nature of the assay: Immunofluorescence of nuclear GR translocation in A549 cells. In kind it is cell-based, human. The settings on record: serum starved A549 cells, 1 µM, 30 min. As for the experimental part:
To detect endogenous GR in A549 cells, cells were grown in serum free media for 24 h followed by treatment with 1 µM of specific GR ligands. After 30 min of treatment, cells on the cover glass were fixed in 4% formaldehyde in phosphate-buffered saline (PBS), permeabilized with 0.3% Triton X-100–PBS, and then blocked in 5% milk, 10% FCS, 0.3% bovine serum albumin, and 0.3% Triton X-100 in PBS for 30 min at room temperature. Primary antibodies against anti GR-antibody (SantaCruz Biotechnology) were used at a dilution of 1:200. Nuclei were stained by DAPI and samples were analyzed using a confocal Leica LSM410 microscope. To quantify nuclear translocation of GR in a standardized manner, multichannel fluorescence images were analyzed using a script for FIJI image analysis freeware (http://fiji.sc) that is essentially based on a pipeline described before (CellBlocks.ijm) ([39]), and is available upon request. In brief, the analysis first segments nuclei in the Hoechst/DAPI channel and then uses the nuclear mask to define perinuclear cytoplasmic regions of interest (ROIs). Nuclei are detected after local contrast enhancement and Gaussian smoothing to, respectively, cover for spatial illumination heterogeneity and noise. After automatic thresholding (Isodata algorithm), touching nuclei are separated using a conditional watershed algorithm ([40]). Next, cytoplasmic ROIs are determined as concentric bands around the nuclei by Voronoi-restrained region growing ([41]). Finally, the average intensity of the GR channel is measured in both the nuclear and cytoplasmic ROIs and the nuclear-to cytoplasm signal intensity ratio (N/C Ratio) is calculated per cell (Figure S1 in Supplementary Material) ([42]).
Figure 6 Selective glucocorticoid receptor agonist GSK866 analogs UAMC-1217, UAMC-1218, but not UAMC-1158 and UAMC-1159 trigger nuclear glucocorticoid receptor (GR) translocation. (A) Serum starved A549 cells were left solvent treated or treated for 30 min with 1 µM Dex, Dex-mesylate (Dex-Mes), GSK866, UAMC-1158, UAMC-1159, UAMC-1217, or UAMC-1218. GR translocation was evaluated by immunofluorescence whereas nuclei were stained by DAPI dye. Magnification is at 100×. White scalebars represent […]. (B) Automated image quantification of GR translocation of three replicate immunofluorescence images of the different experimental setups.

With `C[C@@H]1C[C@H]2[C@@H]3CCC4=CC(=O)C=C[C@]4(C)[C@@]3(F)[C@@H](O)C[C@]2(C)[C@@]1(O)C(=O)CO` [Dex, Dexamethasone, reference compound], the “% inhibition of GR ligand binding” value in assay [1] was 100%. For the same molecule, the “concentration dependence of GR Ser211 phosphorylation” value in assay [2] was “concentration-dependent increase of GR Ser211 phosphorylation”. Further, the “TNF-induced IL6 gene expression” value in assay [3] was “dose-dependently reverse TNF induced IL6 gene expression”. For the same molecule, in assay [4], the “nuclear GR translocation” value is given as “induce (partial) translocation of GR from the cytosol to the nucleus”.

Consider `CCN(C[C@@](O)(CNC(=O)c1cnn(-c2ccc(F)cc2)c1N)C(F)(F)F)C(=O)c1c(Cl)ccc(NC(=O)CCl)c1Cl` [UAMC-1217], for which, in assay [1], the “% inhibition of GR ligand binding” value was 92%. Besides, in assay [1] (displacement of radiolabeled Dex, read-out: IC50 (GR radioligand binding)), the IC50 (in general, the concentration that gives 50% inhibition) is 22 nM. Besides, the Ki (commonly a measure of affinity in units of concentration, obtained from inhibition or displacement) in assay [1] (displacement of radiolabeled Dex, read-out: Ki (GR radioligand binding)) was 11 nM. Also, the “GR Ser211 phosphorylation” value in assay [2] (1 µM, 6 h (UAMC-1158: Figure S2, 4 or 24 h)) is recorded as “enhance the Ser211 phosphorylation”. In addition, in assay [2], the “concentration dependence of GR Ser211 phosphorylation” value is recorded as “concentration-dependent increase of GR Ser211 phosphorylation”. Also, the “TNF-induced IL6 gene expression” value in assay [3] is “dose-dependently reverse TNF induced IL6 gene expression”. For the same molecule, the “nuclear GR translocation” value in assay [4] is given as “induce (partial) translocation of GR from the cytosol to the nucleus”.
